How the values were obtained:
[1] = tested on: PRC2 components SUZ12, EZH2 and EED; assay: Western blot of PRC2 protein levels after drug treatment; assay type: cell-based, human; details: HCT116 or MCF-7 cells, 5 μM, 48 and 72 hours
Description: (§1) Cell lines used in these examples were purchased from the American Type Culture Collection (Manassas, Va.). Cells were maintained in DMEM supplemented with 10% fetal bovine serum with glutamine, penicillin, and streptomycin. For drug treatment, cells were seeded the day before the drug treatment. Cells were treated with 5 μM 3-Deazaneplanocin A or 2 μM 5-aza-2'-deoxycytidine (5-AzaC; Sigma) for 72 hours and trichostatin A (TSA; Sigma) at 100 nM for 24 hours. For co-treatment of cells with 5-AzaC and TSA, 5-Aza was added for 48 hours and followed by TSA for 24 hours. Cell pellets were first lysed in RadioImmuno Precipitation Assay (RIPA) buffer, consisting of an aqueous solution of 25 mM Tris-HCl pH 7.6, 150 mM NaCl, 1% Nonidet-P 40 (NP-40), 1% sodium deoxycholate and 0.1% sodium dodecylsulfate (SDS), before further sonicated using a tissue homogeniser to release all the proteins. Equal amounts of protein were separated on SDS-polyacrylamide gels and transferred to polyvinylidene difluoride (PVDF) membranes. The blots were probed with antibodies against: EED (07-368), SUZ12 (07-379), SUV39H1 (07-550), BMI1 (05-637), tri-methylated H3-K27 (07-449), tri-methylated H3-K9 (07-442) and Acetyl-Histone H3 (06-599), and were purchased from Upstate. EZH2 (AC22) and Histone H3 (3H1) were from Cell Signaling. […]

[2] = tested on: PRC2 target genes in MCF-7, MB-468, SK-BR-3, T47D, MCF10A, MB-231, BT549; assay: Array analysis of PRC2 targets in sensitive and resistant breast cancer cell lines; assay type: cell-based
Description: FIG. 6B depicts the results of array analysis in these breast cancer cell lines (MCF-7, MB-468, SK-BR-3 and T47D sensitive ? MCF10A, MB-231, BT549 resistant) before and after 3-deazaneplanocin treatment. […] Genes marked in bold are highly expressed in resistant cell lines relative to sensitive cell lines.
Total RNA was isolated from cell lines using Trizol (Invitrogen) and was converted to cDNA using an RNA Amplification kit (Ambion). The microarray hybridisation was performed using the Illumina Gene Expression BeadChip (Illumina) and data analysis was performed using GeneSpring software from Agilent Technologies. Gene expression of normal and primary breast tumor samples was performed using Affymetrix U133A GeneChips (Affymetrix, Santa Clara, Calif.) following the manufacturer's instructions. Gene expression data from individual arrays were normalized by median centering and average linkage hierarchical clustering was done using Cluster and Treeview softwares (http://rana.lbl.gov/EisenSoftware.htm). Quantitative real-time PCR was performed on a PRISM 7900 sequenced detector (Applied Biosystems) using TaqMan probes (Applied Biosystems). Samples were normalized to the levels of 18S ribosomal RNA.
(§2) To extend the observation seen in MCF-7 cells, additional breast cancer cell lines were screened, including MB-468, SK-BR-3, MB-231, T47D and BT549. […] To identify the PRC2 target genes associated with the cellular sensitivity to 3-deazaneplanocin, the array analysis was performed in these breast cancer cell lines before and after 3-deazaneplanocin treatment and the expression of the 47 identified PRC2 targets profiled. It was reasoned that some the PRC2 target genes might be differentially expressed between the sensitive and resistant cell lines, which might confer the distinct sensitivity to 3-deazaneplanocin. […] Both the real time and conventional RT-PCR analysis of the 4 gene set confirmed the array data (FIGS. 6D & 6E). […]

MB-468 cells = assay: Cell death / apoptosis by PI staining and flow cytometry; assay type: cell-based, human
Description: FIG. 3A depicts the detection of cell death of a variety of cancer cells upon exposure to 3-deazaneplanocin (DZNep) compared to untreated controls cells (DMSO=dimethyl sulfoxide). Breast cancer MCF-7 and MB-468 cells, colorectal HCT116, RKO and SW480 cells were treated with 5 μm 3-deazaneplanocin for 48 and 72 h, and cell death was detected by means of propodium iodide (PI) staining and flow cytometry analysis. Shown is the average of three independent experiments.
(§3) FIG. 6A depicts an analysis of the breast cancer cell lines MCF-7, MB-468, SK-BR-3, MB-231, T47D and BT549 for an apoptotic effect of 5 μM 3-deazaneplanocin over a time frame of 120 hours. Cell death was measured by FACS analysis. Data presented are the average of three independent experiments.
Cell lines used in these examples were purchased from the American Type Culture Collection (Manassas, Va.). Cells were maintained in DMEM supplemented with 10% fetal bovine serum with glutamine, penicillin, and streptomycin. For drug treatment, cells were seeded the day before the drug treatment. […]
It was observed that 3-deazaneplanocin at 5 μM could induce 25% cell death at 48 hours and 45% of cell death at 72 hours, as determined by propodium iodide (PI) staining and flow cytometry analysis (FIG. 3A). […]

[3] = tested on: trimethylation of histone 3 at lysine 27 (H3-K27); assay: Western blot of histone H3 lysine 27 trimethylation; assay type: cell-based, human; details: HCT116 or MCF-7 cells, 5 μM, 48 and 72 hours
Description: as §1

histone acetylation = assay: Western blot of histone acetylation; assay type: cell-based, human; details: HCT116 or MCF-7 cells, 5 μM, 48 and 72 hours
Description: as §1

SK-BR-3 cells = assay: Apoptotic response time course by FACS analysis; assay type: cell-based, human; details: SK-BR-3, 5 μM, time course to 120 hours
Description: as §3
(§4) Cells were trypsinised and washed with PBS and fixed in 70% ethanol and processed for propidium iodide staining and FACS analysis. For the caspase 3 activity assay and mitochondrial membrane potential detection, cells were stained with anti-active caspase 3 and JC-1, respectively, according to the manufacturer's instructions (BD Bioscience).
as §2

T47D cells = assay: Apoptotic response time course by FACS analysis; assay type: cell-based, human; details: 5 μM, time course to 120 hours
Description: as §3, §4, §2

## Nc1nccc2c1ncn2C1C=C(CO)C(O)C1O (stereo not shown) [3-deazaneplanocin, 5-(4-amino-1H-imidazo[4,5-c]pyridin-1-yl)-3-(hydroxymethyl)-3-cyclopentene-1,2-diol]
[1]
  protein levels of PRC2 components SUZ12, EZH2 and EED: dramatic decrease
[2]; four sensitive cell lines (MCF-7, MB-468, SK-BR-3, T47D)
  induction of FBXO32, LAMB3, PLAU, and PPP1R15A: commonly induced
[2]; resistant cell lines (MCF10A, MB-231, BT549)
  induction of the same PRC2 target genes in resistant cell lines: did not undergo marked further induction
[2]; sensitive cell lines (MCF-7, MB-468, SK-BR-3, T47D)
  induction of TGFBI, IGFBP3, TNS3 and KRT17: induced in 3 out 4 sensitive cell lines
MB-468 cells; MB-468, 5 μM, time course to 120 hours
  sensitivity to 3-deazaneplanocin-induced cell death: highly susceptible
MB-468 cells; breast cancer MB-468 cells, 5 μM
  cell death: obvious cell death
[3]
  trimethylation of histone 3 at lysine 27 (H3-K27): strongly reduced
Histone acetylation
  histone acetylation: did not affect
SK-BR-3 cells
  sensitivity to 3-deazaneplanocin-induced cell death: highly susceptible
T47D cells
  sensitivity to 3-deazaneplanocin-induced cell death: highly susceptible
